Experiments:
[1] = system: U2OS Wild type; assay: siRNA inhibition of MMR, p53 and REV functions, alamar blue growth inhibition; type: cell-based, human; conditions: for Fold improvement in IC50, mlh1: mlh1 siRNA vs control; for IC50: no siRNA knock out, read-out: IC50, Control; for Fold improvement in IC50, p53: p53 siRNA vs control; for Fold improvement in IC50, rev: rev siRNA vs control
Method: (§1) siRNA specific for different genes is purchased from Dharmacon (Thermo. Fisher Scientific Dharmacon Products, Lafayette, Colo. 80026) and the protocol recommended by the supplier is utilized. Confluent cells are trypsinized and 5000 cells are seeded in a well in the presence or absence of siRNA in 100 μL medium. The cells are incubated with siRNA for two days. A non-covalent DNA binding agent of the invention is added in a 10 μL volume and incubated for another 48 hours. After treatment with the agent, the medium is replaced with 1% alamar blue containing medium to measure fluorescence after two hours.
as §1, with “from Dharmacon (Thermo Fisher Scientific” for “from Dharmacon (Thermo. Fisher Scientific”, “two hours. […] The results are presented in FIGS. 14-18 (SEQ ID NO:3-12, respectively) and Table 7.” for “two hours.”

[2] = system: HCT116; assay: Growth inhibition in tumor cell lines (Table 2); type: cell-based, human; conditions: HCT116, colon, KRAS mutation, MLH1 deficiency
Method: (§2) Three novel non-covalent DNA binding agents of the invention, NSC 718813, NSC 723734 and NSC 726260, are tested in five different EGFR-resistant, K-Ras mutant cancer cell lines. These cell lines represent colorectal (SW480, SW620 and HCT116) and breast cancer (MDA-MB-231 and […]).
(§3) The in vitro assays to evaluate the anticancer potential of non-covalent DNA binding agents were measured by using one or more of the assays described below.
(§4) Tumor cells are plated in 96 well plates at a density of 8,000 to 10,000 cells per well in 100 uL volume and grown overnight. On the second day, the cells are supplemented with medium containing an appropriate dilution of the compounds to be tested. The cells are treated with the test compounds for two more days and the growth medium was replaced with fresh medium containing 3% Alamar Blue, incubated for 2-3 hours and plates are read in a SpectraMax Gemini XS fluorescence plate reader (Molecular Devices).

[3] = system: SW620; assay: Growth inhibition in tumor cell lines (Table 2); type: cell-based, human; conditions: SW620, colon, KRAS mutation
Method: as §2, §3, §4

[4] = system: CEM; assay: Growth inhibition in tumor cell lines (Table 2); type: cell-based, human; conditions: leukemia, PTEN deficiency
Method: as §2, §3, §4

[5] = system: MDA231; assay: Growth inhibition in tumor cell lines (Table 2); type: cell-based, human; conditions: MDA231, breast, KRAS & BRAF (ERK+)
Method: as §2, §3, §4

[6] = system: MDA-MB-468; assay: Growth inhibition in tumor cell lines (Table 2); type: cell-based, human; conditions: MDA-MB-468, breast, ERK+ (EGFR over expression), PTEN deficiency
Method: as §2, §3, §4

[7] = system: SW480; assay: Growth inhibition in tumor cell lines (Table 2); type: cell-based, human; conditions: SW480, colon, KRAS mutation
Method: as §2, §3, §4

[8] = system: SW403; assay: Growth inhibition in tumor cell lines (Table 2); type: cell-based, human; conditions: SW403, colon, WT (EGFR over expression)
[9] = system: homologous recombination repair deficiencies; assay: Synthetic lethality with homologous recombination repair deficiencies (FIG. 8); type: cell-based; conditions: FIG. 8 legend
[10] = system: yeast rad57 mutation; assay: Alamar Blue cell survival assay in yeast cells; type: cell-based
Method: The cells are diluted 100-fold in yeast complete medium. 100 μL of diluted cells are seeded in 96 well plates with or without a non-covalent DNA binding compound and incubated for 24 hours at 30° C. The following day, an equal volume of yeast complete medium containing 1% alamar blue is added and incubated at 30° C. for two hours. Fluorescence intensity is measured in a fluorescent reader to calculate the inhibition effect of non-covalent DNA binding agents in mutant and wild type yeast cells.
Yeast cells that carry mutations in different genes involved in homologous recombination (rad 50, rad51, rad52, and rad57) and nucleotide excision/double strand repair (rad1) are grown to stationary culture overnight.

[11] = system: tumor cells that have K-RAS mutations and/or PTEN or mismatch repair gene deficiencies; assay: Growth inhibition, summary of potency in text; type: cell-based, human; conditions: among the three compounds tested, tumor cell lines
Method: as §2, §3, §4

[12] = system: H1299 (p53−); assay: siRNA inhibition of MMR functions, alamar blue growth inhibition; type: cell-based, human; conditions: for Fold improvement in IC50, mlh1: mlh1 siRNA vs control; for Fold improvement in IC50, msh2: msh2 siRNA vs control; for IC50: no siRNA knock out, read-out: IC50, Control
Method: as §1
as §1, with “from Dharmacon (Thermo Fisher Scientific” for “from Dharmacon (Thermo. Fisher Scientific”, “two hours. […] The results are presented in FIGS. 14-18 (SEQ ID NO:3-12, respectively) and Table 7.” for “two hours.”

| Compound | Fold improvement in IC50, mlh1 [1] [fold] | IC50 [1] [nM] | Fold improvement in IC50, p53 [1] [fold] | Fold improvement in IC50, rev [1] [fold] | IC50 [2] [nM] | IC50 [3] [nM] | IC50 [4] [nM] | IC50 [5] [nM] | IC50 [6] [nM] | IC50 [7] [nM] | IC50 [8] [nM] | synthetic lethality with homologous recombination repair deficiencies [9] | IC50 [10] [nM] | IC50 [11] [nM] | Fold improvement in IC50, mlh1 [12] [fold] | Fold improvement in IC50, msh2 [12] [fold] | IC50 [12] [nM] |
| --- | --- | --- | --- | --- | --- | --- | --- | --- | --- | --- | --- | --- | --- | --- | --- | --- | --- |
| COc1cc2c(cc1OCCCC(=O)Nc1ccc3ccc4cccc5ccc1c3c45)N=C[C@@H]1CCCN1C2=O [NSC 726260] | 135 | 400 | 1.1 | 135 | 550 | 1050 ± 50 | 161 ± 0.4 | 501 | 364 | 1080 | 1020 | synthetic lethal | 300 | ~1000 |  |  |  |
| COc1cc2c(cc1OCCCCN1CCN(CCCCOc3cc4c(cc3OC)C(=O)N3CCC[C@H]3C=N4)CC1)N=C[C@@H]1CCCN1C2=O [NSC 723734] | 3.5 | 70 | 1.2 | >70 | 160 | 175 ± 25 | 49 ± 0.8 | 394 | 22 ± 0.7 | 575 | 550 | synthetic lethal |  |  | 2.0 | 2.6 | 900 |
| COc1cc2c(cc1OCCCCCOc1cc3c(cc1OC)C(=O)N1CCC[C@H]1C(=O)N3)N=C[C@@H]1CCCN1C2=O [NSC 718813] | 3.0 | 300 | 10 | 5 | 17 | 236 ± 37.2 | 51 ± 0.6 | 54 | 8 ± 1.2 | 48 | 210 |  |  |  | 1.3 | 1.9 | 600 |

Source: US9744175B2, “Compositions of combinations of non-covalent DNA binding agents and anti-cancer and/or anti-inflammatory agents and their use in disease treatment” (INDUS PHARMACEUTICALS, INC., priority 2012, dated 2017)
